According to patent US12716077B2, “Fermentative production of isoprenoids” (DSM IP ASSETS B.V., priority 2020, dated 2026):

What was measured:
[1] = Loss (consumption, evaporation or other disappearance) of the 2nd phase solvent during the fermentation; set-up: species or system Yarrowia lipolytica; conditions: loss of initial solvent volume, shake plate assay, after 4 days of growth period
Text: As used herein, the term “not disappearing” in connection with the second phase solvents as defined herein means that the same amount of solvent present at the start of the fermentation is still detectable at the end of the fermentation process. A loss or disappearance of solvent might be due to e.g. consumption by the host cell and/or evaporation during the fermentation. The terms “loss” or “disappearance” are used interchangeably herein. Such solvent as used for the process of the present invention is also called a “stable” solvent. Thus, a stable solvent according to the present invention means a loss or disappearance of the solvent during the fermentation in the range of about 20% or less, e.g. in the range of about 20, 15, 10, 8, 5, 3, 2, 1% or even no loss or disappearance of the solvent during the fermentation.
Shake plate assay. Typically, 200 μl of 0.25% yeast extract, 0.5% peptone (0.25X YP) is inoculated with 10 μl of freshly grown Yarrowia and overlaid with 200 μl of solvent. Candida rugosa Lipase (Creative enzymes) was resuspended in PBS and added to the growth media when the carbon source was 2% corn oil. […] The second phase (Drakeol 5, or others listed in table 6) fraction was removed from the shake plate wells and analyzed by UPLC on a normal phase column and/or C4 HPLC, with a photo-diode array detector (see details below). […]

[2] = Density and viscosity in dependence of the solvent used as 2nd phase; format: physicochemical
Protocol: The performance of said 2nd phases were tested with regards to growth, loss (consumption, evaporation or other ways of disappearance) of the solvents during the fermentation and the density and viscosity of the cultivation medium, wherein the test was carried out after 4 days of growth period.

Question: Which Loss [1] does the source give for CCCCCCCCCCCC [dode, n-dodecane] here?
Answer: Its Loss is 100%.

Question: And the Loss ([1]; listed as n-dodecane)?
Answer: The Loss was “completely disappeared”.

Question: And the “Density” value [2]?
Answer: Its value is 0.75 g/mL.

Question: What about the Viscosity ([2]; measured at 20° C.) of the same compound?
Answer: The Viscosity was 1.34.
